Data published in patent US20150031686A1, “PHENYL-OXAZOLYL DERIVATIVES, PREPARATION METHOD THEREOF, AND RELATED APPLICATION OF THE PHENYL-OXAZOLYL DERIVATIVES AS AN IMPDH INHIBITOR” (INSTITUTE OF MEDICINAL BIOTECHNOLOGY, CHINESE ACADEMY OF …, priority 2012, published 2015).
≈ marks a conversion by molar mass, not a printed value.

Experiments:
[1] = system: Coxsackie virus type B3 (COX-B3); assay: Anti-Coxsackie virus type B3 (COX-B3) activity, CPE in Vero cells; format: cell-based; settings: Reed-Muench
Procedure: (§1) With Vero (African green monkey kidney) cells as viral hosts, inhibitory effects of the compounds of present invention on the grades of pathological lesions by coxsackievirus B3 (COX-B3), B6 (COX-B6) viruses in Vero cells were determined. The measured results of viral inhibitory activity of the compounds are shown in Table 3 and Table 4; wherein RBV is the control drug ribavirin. The inhibitory activities of the measured compounds against coxsackievirus B3, B6 were stronger than the control.
(§2) Screening of Anti-B3, B6 Type Coxsackie Viruses (COX-B3, COX-B6) Activity of the Samples
(§3) Prepare stock solutions of COX-B3 (or COX-B6) virus strains as well as tested compounds in DMSO before use. Before tests, dilute the stock solution with culture solution into a certain concentration and then dilute 3 times to make a total of eight dilutions. Use ribavirin (RBV) as positive control. Test procedures are as follows: seed Vero cells into 96-well culture plates, infect with 10^−5 Coxsackie virus of B3 (or B6) type, 24 hours later; adsorb subsequently for 2 hours, then discard the virus solution, add in the sample compounds and the positive control according to the abovementioned dilutions, set cell control wells and virus control wells simultaneously. When the cytopathic effect (CPE) of cells in the virus control wells reach 4+, observe CPE of the cells in each group. Use Reed-Muench method to calculate 50% inhibitory concentration (IC50) of the sample compounds against coxsackie virus B3 (or B6) type.

IMPDH = IMPDH inhibition activity (A340, IMP substrate, NAD); format: biochemical; settings: compound at 10 μg/mL
Procedure: Measurement of IMPDH Inhibitor Activity
In 96-well plates, use IMP as the substrate and NAD, NADH as chromogenic agents to determine the activity of the compounds described in this invention as IMPDH inhibitor. Add 2 μl of each of the tested sample solution, 20 μl enzyme extract and 30 μl IMP into a sample well in the 96-well plates; 2 μl DMSO and 30 μl IMP solution into a control well; 2 μl DMSO and 20 μl IMPDH buffer instead of the enzyme extract and 30 μl IMP solution into a blank well. Keep plates at constant 37° C. for 15 min, measure absorbance values A340 (OD1) of the solutions in various wells; subsequently, add into each well with 50 μl NAD, keep at constant 37° C. for 50 min, then measure A340 (OD2) values. Calculate IMPDH inhibition rates of samples as follows: Inhibition (%)=[(OD2−OD1)control−(OD2−OD1)Sample]/[(OD2−OD1)control−(OD2−OD1)Blank]×100%.

[2] = system: Coxsackie virus type B6 (COX-B6); assay: Anti-Coxsackie virus type B6 (COX-B6) activity, CPE in Vero cells; format: cell-based; settings: Reed-Muench
Procedure: as §1, §2, §3

[3] = system: human hepatoma cell HepG2; assay: In vitro human hepatoma cell HepG2 inhibitory activity (MTT); format: cell-based; settings: Homo sapiens, HepG2, 48 h
Text: (§4) According to the progress in the studies on anticancer drugs using IMPDH as a target, the present invention measured inhibitory activities of the compounds of present invention against human hepatoma cell HepG2 and human lung adenocarcinoma cell A549, respectively, the measured results are shown in Table 5:
In Vitro Human Hepatoma Cell HepG2 Inhibitory Activity Measurement
Collect well growing tumor cells, prepare 6×10^4/ml cell suspension in RPMI-1640 or DMEM culture medium containing 10% FBS, seed in 96-well plates, 100 μl suspension each well, incubate at 37° C. under 5% CO2 atmosphere for 24 h, add the test solution (final concentration of drug: 0.625, 1.25, 2.5, 5.0, 10 μg/ml), for each concentration set three parallel holes, set positive control (cisplatin 10, 1, 0.1 μg/ml) and a blank control simultaneously. After culture for 48 h discard the supernatants, add into each well 10 μl MTT solution (5 mg/ml, prepared with RPMI-1640 medium), continue culturing for 4 It, add into each hole 100 μl acidified isopropanol cell lysate, culture overnight, measure absorbance (A) values with Bio-Tek MQX200 type microplate reader with the detection wavelength at 540 nm, and reference wavelength 450 nm. Calculate the inhibition rate as follows: inhibition rate=(Ablank−Asample)/Ablank control×100%. Use Graphpad Prism 5 statistical software to calculate IC50.

[4] = system: human lung adenocarcinoma cell A549; assay: In vitro human lung adenocarcinoma cell A549 inhibitory activity (MTT); format: cell-based; settings: Homo sapiens, A549, 48 h
Text: as §4
In Vitro Human Lung Adenocarcinoma Cell A549 Inhibitory Activity Measurement
Cell lines: human lung adenocarcinoma cell A549. Collect well growing tumor cells, prepare cell suspension with Ham's F12 culture solution containing 10% fetal calf serum medium, seed the suspension in 96-well plates, each well 100 μl suspension at 5000 cells/well, incubate at 37° C., under 5% CO2 atmosphere, 24 h later, add 2×drug solution […], each concentration in three parallel holes, set the blank control simultaneously. After culture for 48 h, add 20 μl (5 mg/ml) MTT to each well, culture 4 h, discard the supernatants. Measure absorbance (A) values using Bio-Rad 680 microplate reader at a detection wavelength of 570 nm, the survival rate (%) is calculated as follows: AsampleAblank control×100%. Use statistical software Graphpad Prism5 to calculate IC50. After primary screening of all samples, adjust the concentration gradient of the samples with IC50<100 μg/ml to do additional screenings, which are carried out with two parallel determinations.

mouse spleen cell = assay: Mouse spleen cell proliferation inhibiting activity; format: cell-based; settings: mouse spleen cells
Text: The present invention also provides the results of experimental studies on the biological activity of said compounds.

SMILES | IC50 [1] | inhibition rate (%) 10 μg/mL (IMPDH) | IC50 [2] | IC50 [3] | IC50 [4] | IC50 (mouse spleen cell)
COc1cc(NCc2cccs2)ccc1-c1cnco1 [Compound 1, N-(thien-2-ylmethyl)-3-methoxy-4-(oxazol-5-yl) aniline] | 0.44 µg/mL (≈ 1.54 µM) | 65.7% | 0.44 µg/mL (≈ 1.54 µM) | 0.95 µg/mL (≈ 3.32 µM) |  | 
COc1cc(NCc2ccc(C)s2)ccc1-c1cnco1 [Compound 2, N-(5-methylthien-2-ylmethyl)-3-methoxy-4-(oxazol-5-yl) aniline] | 0.23 µg/mL (≈ 0.766 µM) | 68.7% | 0.63 µg/mL (≈ 2.1 µM) | 7.95 µg/mL (≈ 26.5 µM) | 18.6 µg/mL (≈ 61.9 µM) | 
CCc1ccc(CNc2ccc(-c3cnco3)c(OC)c2)s1 [Compound 3, N-(5-ethylthien-2-ylmethyl)-3-methoxy-4-(oxazol-5-yl) aniline] | 0.35 µg/mL (≈ 1.11 µM) |  | 1.43 µg/mL (≈ 4.55 µM) | 20.9 µg/mL (≈ 66.5 µM) | 10.7 µg/mL (≈ 34.2 µM) | 
COc1cc(NCc2ccc(Br)s2)ccc1-c1cnco1 [Compound 5, N-(5-bromothien-2-ylmethyl)-3-methoxy-4-(oxazol-5-yl) aniline] | 0.47 µg/mL (≈ 1.29 µM) | 58.9% | 0.44 µg/mL (≈ 1.2 µM) | 83.4 µg/mL (≈ 228 µM) | 16.5 µg/mL (≈ 45.2 µM) | 
COc1cc(NCc2ccc(-c3ccccc3)s2)ccc1-c1cnco1 [Compound 6, N-(5-phenylthien-2-ylmethyl)-3-methoxy-4-(oxazol-5-yl) aniline] | 0.47 µg/mL (≈ 1.3 µM) |  | 0.27 µg/mL (≈ 0.745 µM) | 31.8 µg/mL (≈ 87.6 µM) | 16.9 µg/mL (≈ 46.6 µM) | 
COc1cc(NCc2ccc(C(=O)O)s2)ccc1-c1cnco1 [Compound 7, 5-(3-methoxy-4-oxazol-5-yl-anilinomethyl)-thien-2-yl carboxylic acid] | > 66.7 µg/mL |  | 18.5 µg/mL (≈ 56 µM) | > 100 µg/mL | > 100 µg/mL | 
COc1cc(NCc2cc3ccccc3s2)ccc1-c1cnco1 [Compound 10, N-(benzothien-2-ylmethyl)-3-methoxy-4-(oxazol-5-yl) aniline] | 0.27 µg/mL (≈ 0.803 µM) |  | 0.36 µg/mL (≈ 1.07 µM) | 21.7 µg/mL (≈ 64.5 µM) | 26.8 µg/mL (≈ 79.5 µM) | 
COc1cc(NCc2ccsc2)ccc1-c1cnco1 [Compound 11, N-(thien-3-ylmethyl)-3-methoxy-4-(oxazol-5-yl) aniline] | 0.44 µg/mL (≈ 1.54 µM) | 69.6% | 1.33 µg/mL (≈ 4.64 µM) | 42.1 µg/mL (≈ 147 µM) | 29.7 µg/mL (≈ 104 µM) | 
COc1cc(NCc2csc3ccccc23)ccc1-c1cnco1 [Compound 20, N-(benzothien-3-ylmethyl)-3-methoxy-4-(oxazol-5-yl) aniline] | 0.64 µg/mL (≈ 1.9 µM) | 47.7% | 0.82 µg/mL (≈ 2.44 µM) | 2.88 µg/mL (≈ 8.57 µM) | 11.6 µg/mL (≈ 34.5 µM) | 
COc1ccc(-c2cnco2)cc1NCc1cccs1 [Compound 21, N-(thien-2-ylmethyl)-2-methoxy-5-(oxazol-5-yl) aniline] | 2.47 µg/mL (≈ 8.63 µM) |  | 3.25 µg/mL (≈ 11.3 µM) | > 100 µg/mL | 122 µg/mL (≈ 427 µM) | 
COc1ccc(-c2cnco2)cc1NCc1ccc(C)s1 [Compound 22, N-(5-methylthien-2-ylmethyl)-2-methoxy-5-(oxazol-5-yl) aniline] | 0.82 µg/mL (≈ 2.73 µM) |  | 3.83 µg/mL (≈ 12.8 µM) | 9.9 µg/mL (≈ 33 µM) | 26.2 µg/mL (≈ 87.2 µM) | 
COc1cc(NCc2ccco2)ccc1-c1cnco1 [Compound 41, N-(furan-2-ylmethyl)-3-methoxy-4-(oxazol-5-yl) aniline] | 0.63 µg/mL (≈ 2.33 µM) |  | 1.88 µg/mL (≈ 6.96 µM) | 40 µg/mL (≈ 148 µM) | 22.8 µg/mL (≈ 84.2 µM) | 
COc1cc(NCc2ccc(C)o2)ccc1-c1cnco1 [Compound 42, N-(5-methylfuran-2-ylmethyl)-3-methoxy-4-(oxazol-5-yl) aniline] | 1.43 µg/mL (≈ 5.03 µM) | 60.7% | 1.93 µg/mL (≈ 6.79 µM) | 31.3 µg/mL (≈ 110 µM) | 20.7 µg/mL (≈ 72.8 µM) | 
COc1cc(/N=C/c2ccc([N+](=O)[O-])o2)ccc1-c1cnco1 [Compound 49, N-(5-nitrofuran-2-methylidene)-3-methoxy-4-(oxazol-5-yl) aniline] | 0.82 µg/mL (≈ 2.62 µM) |  | 1.53 µg/mL (≈ 4.88 µM) | 0.897 µg/mL (≈ 2.86 µM) | 4.84 µg/mL (≈ 15.4 µM) | 
COc1cc(NCc2c[nH]c3ccccc23)ccc1-c1cnco1 [Compound 53, N-(1H-indol-3-ylmethyl)-3-methoxy-4-(oxazol-5-yl) aniline] | > 2.47 µg/mL | 39.2% | 7.41 µg/mL (≈ 23.2 µM) | 22.5 µg/mL (≈ 70.6 µM) | 38.6 µg/mL (≈ 121 µM) | 
COc1cc(NCc2scnc2C)ccc1-c1cnco1 [Compound 54, N-(4-methylthiazol-5-ylmethyl)-3-methoxy-4-(oxazol-5-yl) aniline] | 1.43 µg/mL (≈ 4.74 µM) |  | 3.18 µg/mL (≈ 10.6 µM) | 53.3 µg/mL (≈ 177 µM) | 29.5 µg/mL (≈ 97.8 µM) | 
COc1cc(NCc2cncs2)ccc1-c1cnco1 [Compound 55, N-(thiazol-5-ylmethyl)-3-methoxy-4-(oxazol-5-yl) aniline] | 1.88 µg/mL (≈ 6.54 µM) |  | 3.25 µg/mL (≈ 11.3 µM) | 42.1 µg/mL (≈ 147 µM) | 31.9 µg/mL (≈ 111 µM) | 
COc1cc(NCc2ccncc2)ccc1-c1cnco1 [Compound 56, N-(pyridin-4-ylmethyl)-3-methoxy-4-(oxazol-5-yl) aniline] | 5.75 µg/mL (≈ 20.4 µM) | 37.4% | 4.28 µg/mL (≈ 15.2 µM) |  |  | 
COc1cc(NCc2cccc(C)n2)ccc1-c1cnco1 [Compound 57, N-(6-methylpyridin-2-ylmethyl)-3-methoxy-4-(oxazol-5-yl) aniline] | 2.47 µg/mL (≈ 8.36 µM) | 45.1% | 1.88 µg/mL (≈ 6.37 µM) | 42.8 µg/mL (≈ 145 µM) | 36.7 µg/mL (≈ 124 µM) | 
COc1ccc(CNc2ccc(-c3cnco3)c(OC)c2)cc1 [Compound 61, N-(4-methoxybenzyl)-3-methoxy-4-(oxazol-5-yl) aniline] | 0.64 µg/mL (≈ 2.06 µM) | 73.7% | 1.06 µg/mL (≈ 3.42 µM) | 36.2 µg/mL (≈ 117 µM) | 29.4 µg/mL (≈ 94.8 µM) | 
COc1cc(NC/C=C/c2ccccc2)ccc1-c1cnco1 [Compound 62] | 0.63 µg/mL (≈ 2.06 µM) |  | 1.43 µg/mL (≈ 4.67 µM) | > 100 µg/mL | 32 µg/mL (≈ 105 µM) | 
COc1ccccc1/C=C/CNc1ccc(-c2cnco2)c(OC)c1 [Compound 63] | 0.47 µg/mL (≈ 1.4 µM) |  | 2.47 µg/mL (≈ 7.34 µM) | 19.4 µg/mL (≈ 57.5 µM) | 14.1 µg/mL (≈ 42 µM) | 2.22 µg/mL (≈ 6.6 µM)
COc1cc(/N=C/C=C/c2ccccc2)ccc1-c1cnco1 [Compound 65, N-(phenylpropen-1-ylidene)-3-methoxy-4-(oxazol-5-yl)-aniline] | 1.23 µg/mL (≈ 4.04 µM) | 32.0% | 5.75 µg/mL (≈ 18.9 µM) |  |  | 
